Assay results as given in US9969767B2, “Oxolupene derivatives” (priority 2014, dated 2018).

Tested on: recombinant NL4-3 virus (Renilla luciferase in nef, Gag P373S)
Test: HIV Cell Culture Assay (luciferase reporter virus in MT-2 cells)
Type: cell-based
Details: NL43
Protocol: MT-2 cells and 293T cells were obtained from the NIH AIDS Research and Reference Reagent Program. MT-2 cells were propagated in RPMI 1640 media supplemented with 10% heat inactivated fetal bovine serum, […]. The 293T cells were propagated in DMEM media supplemented with 10% heat inactivated fetal bovine serum (FBS), 100 units/mL penicillin G and 100 μg/mL streptomycin. The proviral DNA clone of NL4-3 was obtained from the NIH AIDS Research and Reference Reagent Program. A recombinant NL4-3 virus, in which a section of the nef gene from NL4-3 was replaced with the Renilla luciferase gene, was used as a reference virus. In addition, residue Gag P373 was converted to P373S. Briefly, the recombinant virus was prepared by transfection of the altered proviral clone of NL4-3. Transfections were performed in 293T cells using LipofectAMINE PLUS from Invitrogen (Carlsbad, Calif.), according to manufacturer's instruction. The virus was titered in MT-2 cells using luciferase enzyme activity as a marker. Luciferase was quantitated using the Dual Luciferase kit from Promega (Madison, Wis.), with modifications to the manufacturer's protocol. The diluted Passive Lysis solution was pre-mixed with the re-suspended Luciferase Assay Reagent and the re-suspended Stop & Glo Substrate (2:1:1 ratio). Fifty (50) μL of the mixture was added to each aspirated well on assay plates and luciferase activity was measured immediately on a Wallac TriLux (Perkin-Elmer). Antiviral activities of inhibitors toward the recombinant virus were quantified by measuring luciferase activity in cells infected for 4-5 days with NLRluc recombinants in the presence serial dilutions of the inhibitor.

Row | SMILES | EC50
1 | CC(C)C1=C2[C@H]3CC[C@@H]4[C@@]5(C)CC=C(C6=CCC(C(=O)O)CC6)C(C)(C)[C@@H]5CC[C@@]4(C)[C@]3(C)CC[C@@]2(C(=O)NCCN2CCOCC2)CC1=O (stereo partly drawn) [Example 1, 4-((3aR,5aR,5bR,7aR,11aS,11bR,13aS)-1-isopropyl-5a,5b,8,8,11a-pentamethyl-3a-((2-morpholinoethyl)carbamoyl)-2-oxo-3,3a,4,5,5a,5b,6,7,7a,8,11,11a,11b,12,13,13a-hexadecahydro-2H-cyclopenta[a]chrysen-9-yl)cyclohex-3-enecarboxylic acid] | 1.93 nM
2 | CC(C)C1=C2[C@H]3CC[C@@H]4[C@@]5(C)CC=C(C6=CCC(C(=O)O)CC6)C(C)(C)[C@@H]5CC[C@@]4(C)[C@]3(C)CC[C@@]2(C(=O)NCCN2CCS(=O)(=O)CC2)CC1=O (stereo partly drawn) [Example 2, 4-((3aR,5aR,5bR,7aR,11aS,11bR,13aS)-3a((2-(1,1-dioxidothiomorpholino)ethyl)carbamoyl)-1-isopropyl-5a,5b,8,8,11a-pentamethyl-2-oxo-3,3a,4,5,5a,5b,6,7,7a,8,11,11a,11b,12,13,13a-hexadecahydro-2H-cyclopenta[a]chrysen-9-yl)cyclohex-3-enecarboxylic acid] | < 100 nM
3 | CC(C)C1=C2[C@H]3CC[C@@H]4[C@@]5(C)CC=C(c6ccc(C(=O)O)cc6)C(C)(C)[C@@H]5CC[C@@]4(C)[C@]3(C)CC[C@@]2(C(=O)O)CC1=O [Example 3, (3aR,5aR,5bR,7aR,11aS,11bR,13aS)-9-(4-carboxyphenyl)-1-isopropyl-5a,5b,8,8,11a-pentamethyl-2-oxo-3,3a,4,5,5a,5b,6,7,7a,8,11,11a,11b,12,13,13a-hexadecahydro-2H-cyclopenta[a]chrysene-3a-carboxylic acid] | < 100 nM
4 | CC(C)C1=C2[C@H]3CC[C@@H]4[C@@]5(C)CC=C(C6=CCC(C(=O)O)CC6)C(C)(C)[C@@H]5CC[C@@]4(C)[C@]3(C)CC[C@@]2(C(=O)O)CC1=O (stereo partly drawn) [Example 4, (3aR,5aR,5bR,7aR,11aS,11bR,13aS)-9-(4-carboxycyclohex-1-en-1-yl)-1-isopropyl-5a,5b,8,8,11a-pentamethyl-2-oxo-3,3a,4,5,5a,5b,6,7,7a,8,11,11a,11b,12,13,13a-hexadecahydro-2H-cyclopenta[a]chrysene-3a-carboxylic acid] | < 100 nM
5 | CC(C)C1=C2[C@H]3CC[C@@H]4[C@@]5(C)CC=C(C6=CC[C@](CF)(C(=O)O)CC6)C(C)(C)[C@@H]5CC[C@@]4(C)[C@]3(C)CC[C@@]2(C(=O)O)CC1=O [Example 5, (3aR,5aR,5bR,7aR,11aS,11bR,13aS)-9-((S)-4-carboxy-4-(fluoromethyl)cyclohex-1-en-1-yl)-1-isopropyl-5a,5b,8,8,11a-pentamethyl-2-oxo-3,3a,4,5,5a,5b,6,7,7a,8,11,11a,11b,12,13,13a-hexadecahydro-2H-cyclopenta[a]chrysene-3a-carboxylic acid] | < 100 nM
6 | CC(C)C1=C2[C@H]3CC[C@@H]4[C@@]5(C)CC=C(C6=CCC(C(=O)O)CC6)C(C)(C)[C@@H]5CC[C@@]4(C)[C@]3(C)CC[C@@]2(NCCN2CCS(=O)(=O)CC2)CC1=O (stereo partly drawn) [Example 6, 4-((3aR,5aR,5bR,7aR,11aS,11bR,13aS)-3a-((2-(1,1-dioxidothiomorpholino)ethyl)amino)-1-isopropyl-5a,5b,8,8,11a-pentamethyl-2-oxo-3,3a,4,5,5a,5b,6,7,7a,8,11,11a,11b,12,13,13a-hexadecahydro-2H-cyclopenta[a]chrysen-9-yl)cyclohex-3-enecarboxylic acid] | < 100 nM
7 | CC(C)C1=C2[C@H]3CC[C@@H]4[C@@]5(C)CC=C(C6=CCC(C(=O)O)CC6)C(C)(C)[C@@H]5CC[C@@]4(C)[C@]3(C)CC[C@@]2(N)CC1=O (stereo partly drawn) [Example 7, 4-((3aR,5aR,5bR,7aR,11aS,11bR,13aS)-3a-amino-1-isopropyl-5a,5b,8,8,11a-pentamethyl-2-oxo-3,3a,4,5,5a,5b,6,7,7a,8,11,11a,11b,12,13,13a-hexadecahydro-2H-cyclopenta[a]chrysen-9-yl)cyclohex-3-enecarboxylic acid] | 0.973 nM
